Molecular target: Integrin alpha-V/beta-3 (Homo sapiens, UniProt P05106+P06756)
Experiment: Binding affinity towards vitronectin receptor (alpha V-beta3) was determined
Assay type: protein-complex assay

Sequence of Integrin alpha-V/beta-3 (P05106 27-788 limits assumed): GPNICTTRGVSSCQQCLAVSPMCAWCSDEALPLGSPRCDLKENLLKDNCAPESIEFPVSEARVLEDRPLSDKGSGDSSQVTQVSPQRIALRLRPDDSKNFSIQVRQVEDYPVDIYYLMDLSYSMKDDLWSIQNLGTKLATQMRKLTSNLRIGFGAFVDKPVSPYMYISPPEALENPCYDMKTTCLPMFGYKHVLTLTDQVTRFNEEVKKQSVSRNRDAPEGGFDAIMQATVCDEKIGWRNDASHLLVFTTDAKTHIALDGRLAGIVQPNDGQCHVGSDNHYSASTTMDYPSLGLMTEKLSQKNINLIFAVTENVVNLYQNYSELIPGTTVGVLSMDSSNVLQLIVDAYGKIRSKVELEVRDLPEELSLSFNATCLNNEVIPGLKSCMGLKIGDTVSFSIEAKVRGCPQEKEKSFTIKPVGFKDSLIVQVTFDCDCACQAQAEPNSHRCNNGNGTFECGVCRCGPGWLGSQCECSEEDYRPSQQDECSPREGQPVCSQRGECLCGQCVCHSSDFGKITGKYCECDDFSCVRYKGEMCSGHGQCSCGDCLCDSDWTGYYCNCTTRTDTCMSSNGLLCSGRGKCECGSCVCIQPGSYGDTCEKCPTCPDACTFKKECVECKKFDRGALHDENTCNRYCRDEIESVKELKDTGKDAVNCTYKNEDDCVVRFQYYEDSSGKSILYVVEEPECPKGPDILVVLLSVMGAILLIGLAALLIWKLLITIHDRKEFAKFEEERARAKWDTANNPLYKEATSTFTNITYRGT
Sequence of Integrin alpha-V/beta-3 (P06756 31-889 limits assumed): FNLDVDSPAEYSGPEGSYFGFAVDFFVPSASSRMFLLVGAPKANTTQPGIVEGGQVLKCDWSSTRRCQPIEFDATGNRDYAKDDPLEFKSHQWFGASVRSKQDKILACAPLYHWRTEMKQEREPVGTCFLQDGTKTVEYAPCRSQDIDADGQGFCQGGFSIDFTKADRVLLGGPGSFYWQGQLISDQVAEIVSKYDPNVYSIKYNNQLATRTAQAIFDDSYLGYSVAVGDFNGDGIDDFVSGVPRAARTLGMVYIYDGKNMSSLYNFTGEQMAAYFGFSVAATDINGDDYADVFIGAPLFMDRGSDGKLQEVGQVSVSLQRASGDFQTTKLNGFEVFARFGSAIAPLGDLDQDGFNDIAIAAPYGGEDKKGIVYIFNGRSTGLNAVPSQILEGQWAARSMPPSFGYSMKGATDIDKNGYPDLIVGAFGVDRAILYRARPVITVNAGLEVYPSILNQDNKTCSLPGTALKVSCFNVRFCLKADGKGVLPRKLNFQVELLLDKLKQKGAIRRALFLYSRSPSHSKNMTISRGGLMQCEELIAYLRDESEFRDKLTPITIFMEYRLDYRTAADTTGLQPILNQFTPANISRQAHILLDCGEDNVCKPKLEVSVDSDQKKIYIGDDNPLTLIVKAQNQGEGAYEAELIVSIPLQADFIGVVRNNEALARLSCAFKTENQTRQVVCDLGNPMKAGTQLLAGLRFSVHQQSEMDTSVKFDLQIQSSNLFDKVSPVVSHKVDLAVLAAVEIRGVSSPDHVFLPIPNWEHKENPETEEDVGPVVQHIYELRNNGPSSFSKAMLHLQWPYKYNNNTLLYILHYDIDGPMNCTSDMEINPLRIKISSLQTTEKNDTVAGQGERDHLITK
Sequence of Integrin alpha-V/beta-3 (P06756 891-1048 limits assumed): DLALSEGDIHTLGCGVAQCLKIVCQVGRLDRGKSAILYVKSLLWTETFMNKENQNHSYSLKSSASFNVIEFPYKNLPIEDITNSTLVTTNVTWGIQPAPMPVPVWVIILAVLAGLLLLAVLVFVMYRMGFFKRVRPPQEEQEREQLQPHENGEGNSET

SMILES	Ki [nM]
CCCNC(=O)Nc1cccc(-c2ccc(C[C@H](NC(=O)OCc3ccccc3)C(=O)O)cc2)c1	800
CCCNC(=O)Nc1cccc(-c2ccc(C[C@H](NS(=O)(=O)c3cccc(Cl)c3Cl)C(=O)O)cc2)c1	170
Cc1cc(C)c(S(=O)(=O)N[C@@H](Cc2ccc(-c3cccc(NC(=O)NCC(F)(F)C(F)(F)F)c3)cc2)C(=O)O)c(C)c1	80
CCCNC(=O)Nc1cccc(-c2ccc(C[C@H](NS(=O)(=O)c3cc(Cl)ccc3OC)C(=O)O)cc2)c1	1700
CCCNC(=O)Nc1cccc(-c2ccc(C[C@H](NC(=O)Oc3ccc(OC)cc3)C(=O)O)cc2)c1	300
CCCNC(=O)Nc1cccc(-c2ccc(C[C@H](NS(C)(=O)=O)C(=O)O)cc2)c1	75
CCCNC(=O)Nc1cccc(-c2ccc(C[C@H](NC(=O)c3ccc(OC)cc3)C(=O)O)cc2)c1	> 10000
Cc1cc(C)c(S(=O)(=O)N[C@@H](Cc2ccc(-c3ccc(C)c(NC(=O)NC4CCCC4)c3)cc2)C(=O)O)c(C)c1	100
CCCNC(=O)Nc1cccc(-c2ccc(C[C@H](NC(=O)OCC(C)C)C(=O)O)cc2)c1	900
CCCNC(=O)Nc1cccc(-c2ccc(C[C@H](NS(=O)(=O)c3ccccc3C)C(=O)O)cc2)c1	70
CCCNC(=O)Nc1cccc(-c2ccc(C[C@H](NS(=O)(=O)Cc3ccccc3)C(=O)O)cc2)c1	300
Cc1cc(C)c(S(=O)(=O)N[C@@H](Cc2ccc(-c3cccc(NC(=O)NCCSC(F)(F)F)c3)cc2)C(=O)O)c(C)c1	8
CCCNC(=O)Nc1cccc(-c2cccc(C[C@H](NS(=O)(=O)c3c(C)cc(C)cc3C)C(=O)O)c2)c1	> 10000
CCCNC(=O)Nc1cccc(-c2ccc(C[C@H](NC(=O)NCc3ccccc3)C(=O)O)cc2)c1	850
CCCNC(=O)Nc1cccc(-c2ccc(C[C@H](NS(=O)(=O)c3ccc(OC)c(OC)c3)C(=O)O)cc2)c1	750
CCCNC(=O)Nc1cccc(-c2ccc(C[C@H](NC(N)=O)C(=O)O)cc2)c1	560
CCCNC(=O)Nc1cccc(-c2ccc(C[C@H](NS(=O)(=O)c3ccccc3C(F)(F)F)C(=O)O)cc2)c1	> 10000
CCCNC(=O)Nc1cccc(-c2ccc(C[C@H](NC(=O)OCC)C(=O)O)cc2)c1	120
CCCNC(=O)Nc1cccc(-c2ccc(C[C@H](NC(=O)OCC(C)(C)C)C(=O)O)cc2)c1	800
CCCNC(=O)Nc1cccc(-c2ccc(C[C@H](NS(=O)(=O)c3ccccc3S(C)(=O)=O)C(=O)O)cc2)c1	> 10000
CCCNC(=O)Nc1cccc(-c2ccc(C[C@H](NS(=O)(=O)C[C@]34CCC(CC3=O)C4(C)C)C(=O)O)cc2)c1	1
CCCNC(=O)Nc1cccc(-c2ccc(C[C@H](NS(=O)(=O)c3cc(OC)ccc3OC)C(=O)O)cc2)c1	500
Cc1cc(C)c(S(=O)(=O)N[C@@H](Cc2ccc(-c3ccc(C)c(NC(=O)NC4CC4)c3)cc2)C(=O)O)c(C)c1	10
CCCNC(=O)Nc1cccc(-c2ccc(C[C@H](NC(=O)OC3CCCC3)C(=O)O)cc2)c1	210
CCCNC(=O)Nc1cccc(-c2ccc(C[C@H](NS(=O)(=O)c3ccc(Cl)cc3C(F)(F)F)C(=O)O)cc2)c1	100

Now from value to compound:

Ki [nM]	SMILES
4	CCCNC(=O)Nc1cccc(-c2ccc(C[C@H](NS(=O)(=O)c3c(C)cc(C)cc3C)C(=O)O)cc2)c1
10	Cc1cc(C)c(S(=O)(=O)N[C@@H](Cc2ccc(-c3cccc(NC(=O)NCC(C)C)c3)cc2)C(=O)O)c(C)c1
60	Cc1cc(C)c(S(=O)(=O)N[C@@H](Cc2ccc(-c3cccc(NC(=O)NCc4ccccc4)c3)cc2)C(=O)O)c(C)c1
2.5	Cc1cc(C)c(S(=O)(=O)N[C@@H](Cc2ccc(-c3cccc(NC(=O)NC4CC4)c3)cc2)C(=O)O)c(C)c1
160	CNC(=O)Nc1cccc(-c2ccc(C[C@H](NS(=O)(=O)c3c(C)cc(C)cc3C)C(=O)O)cc2)c1
> 10000	Cc1cc(C)c(S(=O)(=O)N[C@@H](Cc2ccc(-c3cccc(NC(=O)Nc4nc5ccccc5[nH]4)c3)cc2)C(=O)O)c(C)c1
74	CCC(C)NC(=O)Nc1cccc(-c2ccc(C[C@H](NS(=O)(=O)c3c(C)cc(C)cc3C)C(=O)O)cc2)c1 (stereo partly drawn)
> 10000	Cc1cc(C)c(S(=O)(=O)N[C@@H](Cc2ccc(-c3cccc(NC(=O)NCc4ccccn4)c3)cc2)C(=O)O)c(C)c1
80	Cc1cc(C)c(S(=O)(=O)N[C@@H](Cc2ccc(-c3cccc(NC(N)=O)c3)cc2)C(=O)O)c(C)c1
11	Cc1cc(C)c(S(=O)(=O)N[C@@H](Cc2ccc(-c3cccc(NC(=N)N)c3)cc2)C(=O)O)c(C)c1
1000	Cc1cc(C)c(S(=O)(=O)N[C@@H](Cc2ccc(-c3cccc(NC(=O)NCc4ccc(C(F)(F)F)cc4)c3)cc2)C(=O)O)c(C)c1
14	Cc1cc(C)c(S(=O)(=O)N[C@@H](Cc2ccc(-c3cccc(NC(=O)NC(C)C)c3)cc2)C(=O)O)c(C)c1
20	Cc1cc(C)c(S(=O)(=O)N[C@@H](Cc2ccc(-c3cccc(NC(=O)NCC(F)(F)F)c3)cc2)C(=O)O)c(C)c1

Reference: ChEMBL document CHEMBL1136646, “Biphenyls as potent vitronectin receptor antagonists. Part 2: biphenylalanine ureas” (Bioorg Med Chem Lett, 2003)
